Where two headings read alike, the source gives them in different places.
Molecular target: T1, Taf3-PHD (residues 857–924) (Mus musculus, UniProt Q5HZG4)
T1 construct: PHD finger of Taf3 (residues 857–924) in NMR buffer; GST (N, cleaved yes); made in house; host or cells: E. coli BL21(DE3), M9 minimal medium (13C/15N)
T1 sequence (Q5HZG4 857-924): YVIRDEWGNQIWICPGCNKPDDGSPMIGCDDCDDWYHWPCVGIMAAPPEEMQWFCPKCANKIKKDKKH
Assay: NMR titration line shape analysis (TITAN), wild-type Taf3-PHD
Type: binding
Method: The ^13C- and ^15N-labelled Taf3-PHD NMR samples were purified as described above, with minor differences. A single colony of freshly transformed BL21(DE3) E. coli was grown in a synthetic M9 minimal medium (6.0 g/l Na2HPO4·2H2O, 3.0 g/l KH2PO4, 0.5 g/l NaCl, 25 mg/l MgSO4, 290 μg/l CaCl2, 1 μg/l FeSO4·7H2O, 270 μg/l ZnCl2, and 5 mg/l thiamine) containing 2.0 g/l ^13C-glucose as the only carbon source and 0.5 g/l ^15NH4Cl as the sole nitrogen source. Protein expression, lysis, and loading to Glutathione Sepharose™ column were performed as described above. The GST-tag was removed through on-column thrombin digestion by loading excess thrombin (SERVA) in wash buffer followed by overnight digestion at 4°C. The cleaved PHD moiety with a […] N-terminal extension (Gly–Ser–His–Met–Ala–Met–Ala) remaining from the thrombin cleavage site was collected from the flow-through and further purified in a Mono Q™ 10/100 GL as before and subsequently loaded to a Superdex-75 HiLoad 16/600 gel filtration column in NMR buffer (20 mM KPi, pH 7.0, 150 mM KCl, 10 μM ZnCl2) (Supplementary Fig. S1).
All data were recorded at 298 K on a Bruker Avance III HD 900 MHz spectrometer equipped with a cryoprobe, unless noted otherwise. Sample for assignment verification contained 0.3 mM ^13C- and ^15N-labelled PHD finger of Taf3 (residues 857–924) in NMR buffer (20 mM KPi, pH 7.0, 150 mM KCl, 10 μM ZnCl2, 0.01% NaN3, 10% D2O) in a 5-mm NMR tube. Samples for peptide interaction studies contained 0.19 mM ^13C- and ^15N-labelled PHD in NMR buffer in 3-mm NMR tubes. Lyophilized peptides were dissolved in NMR buffer including 1 mM sodium 3-(trimethylsilyl)tetradeuteriopropanionate (TSP) into 20 mM stock solutions. Upon dilution to 1 mM, all peptide solutions were at pH 7.0 in NMR buffer. Peptide concentrations were determined by comparing the integral of the Thr methyl signal (from T3, T6, and T11, total nine protons) to that of TSP using a quantitative 1D experiment (recycle delay 60 s) recorded at a Bruker Avance III 600 MHz spectrometer. Saturated complexes with H3K4me1/H3K4me2/H3K4me3 peptides with and without H3Q5ser were made by adding peptide to a 0.7 mM final concentration (3.6 equiv.). […] Additional samples were prepared using 30%, 50%, 80%, and 160% equiv. of peptide. All spectra were recorded and processed using Bruker Topspin and analysed using NMR-FAM Sparky and Poky.
For the H3K4me2 complexes, the resonance of G879 was excluded due to overlap and that of K875 was included. Spectra were processed using NMRPipe using exponential line broadening of 10/15 Hz in the direct/indirect dimension of the free induction decay before Fourier transform. Data were fit against a 1:1 binding model that also optimizes the ligand concentration to compensate for concentration errors. Fitting assumed an HSQC experiment using 1.2 ms for the first zz-filter delays and an additional 0.6 ms evolution at the start and end of t1 that accommodated the echo/anti-echo gradient. The average koff value and standard error from a bootstrap analysis based on 100 replicas are reported. The 95% confidence limits were estimated using a grid search fixing koff allowing for an ∼3% increase in the final residuals as based on the F-statistic given the degrees of freedom. For each koff value, the KD for the H3K4me3 peptide was restrained to fall within 100 and 400 nM to enforce compatibility to previous reported affinity to avoid unrealistically high fitted KD values at higher koff values. Of note, the quality of the fit at the confidence limit edges is visibly worse than the best fit, particularly for the high koff side. For the H3K4me3Q5ser peptide, no restraint on KD was necessary. For the H3K4me2 peptides, the KD was restrained to 5 μM maximum. Without these upper bounds for KD, slightly wider confidence limits for koff are found.

Row | koff (NMR line shape fit (TITAN), 298 K, 20 mM KPi, pH 7.0, 150 mM KCl, 1:1 model, average ± standard error from bootstrap, 100 replicas, read-out: koff) [s⁻¹] | koff (NMR line shape fit (TITAN), 298 K, pH 7.0, grid search, read-out: koff 95% confidence limits) [s⁻¹] | Compound | koff (pH 7) [s⁻¹] | koff (pH 7, read-out: koff 95% confidence limits) [s⁻¹]
1 | – | – | C[C@H](N)C(=O)N[C@@H](CCCNC(=N)N)C(=O)N[C@H](C(=O)N[C@@H](CCCC[N+](C)(C)C)C(=O)N[C@@H](CCC(=O)NCCc1c[nH]c2ccc(O)cc12)C(=O)N[C@H](C(=O)N[C@@H](C)C(=O)N[C@@H](CCCNC(=N)N)C(=O)N[C@@H](CCCCN)C(=O)N[C@@H](CO)C(=O)N[C@H](C(=O)NCC(N)=O)[C@@H](C)O)[C@@H](C)O)[C@@H](C)O [H3K4me3Q5ser] | 16.8 ± 0.5 | 12 to 22
2 | 48.8 ± 1 | 42 to 56 | C[C@H](N)C(=O)N[C@@H](CCCNC(=N)N)C(=O)N[C@H](C(=O)N[C@@H](CCCC[N+](C)(C)C)C(=O)N[C@@H](CCC(N)=O)C(=O)N[C@H](C(=O)N[C@@H](C)C(=O)N[C@@H](CCCNC(=N)N)C(=O)N[C@@H](CCCCN)C(=O)N[C@@H](CO)C(=O)N[C@H](C(=O)NCC(N)=O)[C@@H](C)O)[C@@H](C)O)[C@@H](C)O [H3K4me3] | – | –
